Measurements published in ChEMBL document CHEMBL5576089, “Discovery of Oxidized p-Terphenyls as Phosphodiesterase 4 Inhibitors from Marine-Derived Fungi” (J Nat Prod, 2024).
Calls of active or inactive are those of the source. No cut-off for these calls is given here.

What was measured:
[1] = molecular target: Phosphodiesterase 4 (Homo sapiens, UniProt P27815+Q08499+Q07343+Q08493); test: Inhibition of PDE4 (unknown origin) using [3H]cAMP[…] as substrate incubated for 15 mins by phosphodiesterase scintillation proximity assay; format: protein assay
[2] = tested on: MRC5; test: Anti-fibrotic activity in TGF-beta1-activated human MRC5 cells assessed as reduction in FN1 mRNA level at 10 uM incubated for 48 hrs by RT-qPCR analysis; format: functional, cell-based
[3] = tested on: MRC5; test: Anti-fibrotic activity in TGF-beta1-activated human MRC5 cells assessed as reduction in alpha-SMA mRNA level at 10 uM incubated for 48 hrs by RT-qPCR analysis; format: functional, cell-based
[4] = tested on: MRC5; test: Anti-fibrotic activity in TGF-beta1-activated human MRC5 cells assessed as reduction in COL1 mRNA level at 10 uM incubated for 48 hrs by RT-qPCR analysis; format: functional, cell-based
[5] = tested on: RAW264.7; test: Antiinflammatory activity in LPS-induced mouse RAW264.7 cells assessed as reduction in TNF-alpha mRNA level at 10 to 20 uM preincubated with compound for 4 hrs followed by LPS stimulation and measured after 24 hrs by RT-qPCR analysis; format: functional, cell-based; details: dose 10-20 µM, time 28.0 hrs
[6] = tested on: MRC5; test: Anti-fibrotic activity in TGF-beta1-activated human MRC5 cells assessed as reduction in COL1 protein expression incubated for 48 hrs by Western blot analysis; format: functional, cell-based; details: dose 5-20 µM
[7] = tested on: MRC5; test: Anti-fibrotic activity in TGF-beta1-activated human MRC5 cells assessed as reduction in alpha-SMA protein expression at 20 uM incubated for 48 hrs by DAPI staining based immunofluorescence microscopic analysis; format: functional, cell-based
[8] = tested on: MRC5; test: Anti-fibrotic activity in TGF-beta1-activated human MRC5 cells assessed as reduction in alpha-SMA protein expression incubated for 48 hrs by Western blot analysis; format: functional, cell-based; details: dose 5-20 µM
[9] = tested on: RAW264.7; test: Cytotoxicity against mouse RAW264.7 cells assessed as reduction in cell viability at 10 to 160 uM incubated for 48 hrs by CCK8 assay; format: toxicity, cell-based; details: raw264.7, 48 h, dose 10-160 µM
[10] = tested on: RAW264.7; test: Antiinflammatory activity in LPS-induced mouse RAW264.7 cells assessed as reduction in IL-6 mRNA level at 10 to 20 uM preincubated with compound for 4 hrs followed by LPS stimulation and measured after 24 hrs by RT-qPCR analysis; format: functional, cell-based; details: dose 10-20 µM, time 28.0 hrs
[11] = tested on: NIH3T3; test: Cytotoxicity against mouse NIH3T3 cells assessed as reduction in cell viability incubated for 48 hrs; format: toxicity, cell-based; details: nih3t3, 48 h
[12] = tested on: RAW264.7; test: Antiinflammatory activity in LPS-induced mouse RAW264.7 cells assessed as reduction in IL-1beta mRNA level at 10 to 20 uM preincubated with compound for 4 hrs followed by LPS stimulation and measured after 24 hrs by RT-qPCR analysis; format: functional, cell-based; details: dose 10-20 µM, time 28.0 hrs
[13] = tested on: NIH3T3; test: Anti-fibrotic activity in TGF-beta1-induced mouse NIH3T3 cells assessed as reduction in fibronectin expression at 20 uM incubated for 48 hrs by Western blot analysis; format: functional, cell-based
[14] = tested on: MRC5; test: Anti-fibrotic activity in TGF-beta1-activated human MRC5 cells assessed as reduction in FN1 protein expression incubated for 48 hrs by Western blot analysis; format: functional, cell-based; details: dose 5-20 µM
[15] = tested on: MRC5; test: Anti-fibrotic activity in TGF-beta1-activated human MRC5 cells assessed as reduction in alpha-SMA mRNA level at 5 to 20 uM incubated for 48 hrs by RT-qPCR analysis; format: functional, cell-based; details: dose 5-20 µM
[16] = tested on: MRC5; test: Anti-fibrotic activity in TGF-beta1-activated human MRC5 cells assessed as reduction in COL-1 mRNA level at 5 to 20 uM incubated for 48 hrs by RT-qPCR analysis; format: functional, cell-based; details: dose 5-20 µM
[17] = tested on: MRC5; test: Anti-fibrotic activity in TGF-beta1-activated human MRC5 cells assessed as reduction in FN1 mRNA level at 5 to 20 uM incubated for 48 hrs by RT-qPCR analysis; format: functional, cell-based; details: dose 5-20 µM
[18] = tested on: MRC5; test: Anti-fibrotic activity in TGF-beta1-activated human MRC5 cells assessed as reduction in COL1 protein expression at 20 uM incubated for 48 hrs by DAPI staining based immunofluorescence microscopic analysis; format: functional, cell-based

COc1cc(-c2ccccc2)c(OC)c(O)c1-c1ccc(OCC=C(C)C)c(O)c1
IC50 [1]: 3500 nM

COc1cc(-c2ccc(O)c(CC=C(C)C)c2)c(OC)c(O)c1-c1ccc(OCC=C(C)C)c(O)c1
IC50 [1]: 3000 nM

COc1cc(-c2ccc(O)cc2)c(OC)c(O)c1-c1ccc(O)c(CC=C(C)C)c1 [PRENYLTERPHENYLLIN]
IC50 [1]: 4200 nM

Cc1ccc(=O)n(-c2ccccc2)c1
Activity [2]: Active
Activity [3]: Active
Activity [4]: Active

COc1c(O)c(-c2ccccc2)c(O)c(OC)c1-c1ccccc1
IC50 [1]: 400 nM

COc1ccc(-c2c(OC)cc(-c3ccc(O)c(CC=C(C)C)c3)c(OC)c2O)cc1OC
IC50 [1]: 1800 nM

COc1c(O)c(-c2ccccc2)c(O)c(OC)c1-c1ccc(O)cc1
IC50 [1]: 620 nM

COc1c(O)c(-c2ccccc2)c(OC(C)=O)c(OC)c1-c1ccccc1
Activity [5]: Active
Activity [6]: Dose-Dependent Effect
Activity [7]: Active
Activity [8]: Dose-Dependent Effect
Activity [9]: Non-Toxic
Activity [10]: Active
Activity [11]: Non-Toxic
Activity [12]: Active
Activity [13]: Active
Activity [14]: Dose-Dependent Effect
Activity [15]: Active
IC50 [1]: 1200 nM
Activity [16]: Active
Activity [17]: Active
Activity [18]: Active

COc1c(-c2ccc(O)cc2)cc(O)c(-c2ccccc2)c1O
IC50 [1]: 16000 nM
